In patent publication US7485644B2, “N-{'4-substituted piperazine-1-sulfonylmethylalkyl}-n-hydroxyfomamide compounds as metalloproteinase inhibitors” (AstraZeneca AB, priority 2003, dated 2009) one finds melting point and IC50 data, which are given here for 11 compounds.

The melting point is the temperature of the solid-liquid transition. What is called IC50 is the concentration that inhibits the measured activity by half.

Each structure is given as a SMILES string.

Test system in the first data set: not given
Assay: not given
Details: not given
`O=CN(O)[C@@H](CCCc1ncccn1)CS(=O)(=O)N1CCN(c2ncc(OCC(F)(F)F)cn2)CC1` [Example 1, Hydroxy{(1S)-4-pyrimidin-2-yl-1-[({4-[5-(2,2,2-trifluoroethoxy)pyrimidin-2-yl]piperazin-1-yl}sulfonyl)methyl]butyl}formamide] gave a melting point of 129 to 133 °C. Same read-out and setting: for `O=CN(O)[C@@H](CCc1ncccn1)CS(=O)(=O)N1CCN(c2ccc(OCC(F)(F)F)cn2)CC1` [Example 3, Hydroxy{(1S)-3-pyrimidin-2-yl-1-[({4-[5-(2,2,2-trifluoroethoxy)pyridin-2-yl]piperazin-1-yl}sulfonyl)methyl]propyl}formamide] the value was 149 to 151 °C. In the case of `O=CN(O)[C@H](CS(=O)(=O)N1CCN(c2ccc(OC(F)(F)C(F)F)cc2)CC1)C1CCOCC1` [Example 4, Hydroxy[(1S)-2-({4-[4-(1,1,2,2-tetrafluoroethoxy)phenyl]piperazin-1-yl}sulfonyl)-1-(tetrahydro-2H-pyran-4-yl)ethyl]formamide], the melting point lay within 175 to 176 °C.

Another data set concerns the target T1, Collagenase 3 (MMP13) (Homo sapiens, UniProt P45452).
T1 construct: made in house
In words: Collagenase 3 (MMP13) enzyme inhibition, fluorogenic peptide substrate. It counts as biochemical. To be noted: recombinant human proMMP13 activated with APMA; 4-5 hours at 35° C., pH 7.5; fluorescence λex 328 nm, λem 393 nm; read-out: IC50 (nM), collagenase 3 (MMP13) inhibitory activity. The text has this: The activity and selectivity of the compounds according to the invention may be determined using an appropriate enzyme inhibition test as described in WO 00/12478, WO 00/75108 and WO 01/62742. Collagenase 3 (MMP13) inhibitory activity may be assessed, for example, using the procedure set out below:—
Recombinant human proMMP13 may be expressed and purified as described by Knauper et al. [V. Knauper et al., (1996) The Biochemical Journal 271:1544-1550 (1996)]. The purified enzyme can be used to monitor inhibitors of activity as follows: purified proMMP13 is activated using 1 mM amino phenyl mercuric […] (APMA), 20 hours at 21° C.; the activated MMP13 (11.25 ng per assay) is incubated for 4-5 hours at 35° C. in assay buffer (0.1M Tris-HCl, pH 7.5 containing 0.1M NaCl, 20 mM CaCl2, 0.02 mM ZnCl and 0.05% (w/v) Brij 35 using the synthetic substrate 7-methoxycoumarin-4-yl)acetyl.Pro.Leu.Gly.Leu.N-3-(2,4-dinitrophenyl)-L-2,3-diaminopropionyl.Ala.Arg.NH2 in the presence or absence of inhibitors. Activity is determined by measuring the fluorescence at λex 328 nm and λem 393 nm. By measuring the activity at a range of concentrations, a binding curve can be generated from which the IC50 can be determined, this figure being the inhibitor concentration at which the enzyme activity is reduced by 50%.
As for `O=CN(O)C(CS(=O)(=O)N1CCN(c2ncc(OCC(F)(F)F)cn2)CC1)C1CCOCC1` (centres unmarked) [Example 2f], the IC50 stood at 13 nM. As to `CCC(CS(=O)(=O)N1CCN(c2ccc(OC(F)(F)C(F)F)cc2)CC1)N(O)C=O` (racemic) [Example 7f], the IC50 is 2.8 nM. In the case of `O=CN(O)C(CCCc1ncccn1)CS(=O)(=O)N1CCN(c2ccc(OC(F)(F)C(F)F)cc2)CC1` (centres unmarked) [Example 7a], the IC50 was found to be 0.12 nM. As to `O=CN(O)C(CCc1ncc(F)cn1)CS(=O)(=O)N1CCN(c2ccc(OCC(F)(F)F)cn2)CC1` (centres unmarked) [Example 2b], the IC50 came to 0.24 nM. In the case of `O=CN(O)C(CCc1ncccn1)CS(=O)(=O)N1CCN(c2ccc(OCC(F)(F)F)cc2)CC1` (centres unmarked) [Example 8b], the IC50 turned out to be 1.5 nM. On to `O=CN(O)C(CCc1ncc(F)cn1)CS(=O)(=O)N1CCN(c2ccc(OC(F)(F)C(F)F)cc2)CC1` (centres unmarked) [Example 7c], for which the IC50 is 0.19 nM. Regarding `O=CN(O)C(CS(=O)(=O)N1CCN(c2ccc(OCC(F)(F)F)cc2)CC1)C1CCOCC1` (centres unmarked) [Example 8g], the IC50 stood at 4 nM. Still for that read-out and setting: for `O=CN(O)C(CS(=O)(=O)N1CCN(c2ccc(OC(F)(F)C(F)F)cc2)CC1)c1ccccc1` (centres unmarked) [Example 5, Hydroxy[1-phenyl-2-({4-[4-(1,1,2,2-tetrafluoroethoxy)phenyl]piperazin-1-yl}sulfonyl)ethyl]formamide] the value was 3.6 nM.
